The IC50 is the midpoint of a concentration-inhibition curve. A higher IC50 goes with weaker potency in that assay.

The target of this experiment is T1, Androgen Receptor (AR) (Homo sapiens, UniProt P10275, T878A).
T1 construct: cell based immuno-fluorescence assay using the LNCaP prostate epithelial cell line; host or cells: LNCaP clone FGC prostate carcinoma cells
T1 sequence (P10275 1-920 T878A): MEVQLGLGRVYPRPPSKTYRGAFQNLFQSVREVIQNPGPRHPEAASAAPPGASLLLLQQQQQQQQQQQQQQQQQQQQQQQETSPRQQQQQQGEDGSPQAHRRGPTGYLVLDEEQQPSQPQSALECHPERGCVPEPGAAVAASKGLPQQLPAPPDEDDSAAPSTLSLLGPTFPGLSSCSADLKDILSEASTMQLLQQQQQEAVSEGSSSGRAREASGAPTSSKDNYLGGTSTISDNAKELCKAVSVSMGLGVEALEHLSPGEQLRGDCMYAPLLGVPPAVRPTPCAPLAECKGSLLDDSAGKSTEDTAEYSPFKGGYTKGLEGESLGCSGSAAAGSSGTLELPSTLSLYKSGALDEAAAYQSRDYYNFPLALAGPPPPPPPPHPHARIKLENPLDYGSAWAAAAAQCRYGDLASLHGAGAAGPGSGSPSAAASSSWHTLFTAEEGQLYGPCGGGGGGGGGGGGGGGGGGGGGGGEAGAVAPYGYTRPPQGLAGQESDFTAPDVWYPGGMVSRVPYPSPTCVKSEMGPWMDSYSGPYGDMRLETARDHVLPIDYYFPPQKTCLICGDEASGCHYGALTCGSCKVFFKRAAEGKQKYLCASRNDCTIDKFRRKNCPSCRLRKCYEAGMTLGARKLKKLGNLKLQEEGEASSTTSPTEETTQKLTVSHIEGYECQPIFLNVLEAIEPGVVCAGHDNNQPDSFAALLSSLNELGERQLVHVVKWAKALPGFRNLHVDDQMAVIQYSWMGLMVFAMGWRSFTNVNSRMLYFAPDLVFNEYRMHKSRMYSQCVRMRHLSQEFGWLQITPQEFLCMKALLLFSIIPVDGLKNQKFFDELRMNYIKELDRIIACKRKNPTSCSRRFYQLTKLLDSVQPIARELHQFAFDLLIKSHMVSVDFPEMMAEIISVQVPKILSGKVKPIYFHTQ
Description: LNCaP Androgen Receptor Down-Regulation Cell Assay. Format: cell-based. Conditions: LNCaP prostate carcinoma cell line; 20-22 hours incubation; immunofluorescence; 50% reduction of the AR signal. Here is the method:
The ability of compounds to reduce Androgen Receptor (AR) numbers was assessed in a cell based immuno-fluorescence assay using the LNCaP prostate epithelial cell line.
This immunofluorescence end point assay measures the ability of a test compound to down-regulate and reduce measured levels of the AR in the LNCaP prostate carcinoma cell line (LNCaP clone FGC (CRL-1740) obtained from the American Type Culture Collection (ATCC)).
LNCaP cells were cultured in Growth Medium (phenol red free Roswell Park Memorial Institute (RPMI) 1640 (Invitrogen Code no. 11835-063) containing 2 mM L-Glutamine (Invitrogen Code no. 25030-024) and 1% (v/v) Penicillin/Streptomycin (10000 units/ml Penicillin and 10000 μg/ml of Streptomycin utilising penicillin G (sodium salt) and streptomycin sulphate: prepared in normal saline, Invitrogen Code no. 15140122) and 10% (v/v) foetal bovine serum (FBS)) in a 5% CO2 air incubator at 37° C. Cells for assay were harvested from T175 stock flasks by washing once in PBS (phosphate buffered saline, pH 7.4) (Invitrogen Code no. 14190-094) and harvested using 5 mls of 1× Trypsin/ethylaminediaminetetraacetic acid (EDTA) (10× Trypsin-EDTA, 5.0 g/L Trypsin, 2.0 g/L of EDTA•4Na and 8.5 g/L of NaCl, without Phenol Red, Invitrogen Code no. 15400-054) diluted in PBS solution. A 5 ml volume of Growth Medium was added to each flask (as above except that 5% (v/v) charcoal stripped FBS (HyClone Code no. SH30068.03) was included instead of 10% (v/v) FBS). Cells were syringed at least twice using a sterile 18G×1.5″ (1.2×40 mm) broad gauge needle and cell density was measured using a haemocytometer. Cells were further diluted in Growth Medium plus 5% (v/v) charcoal stripped FBS and seeded at a density of 6.5×10^3 cells per well (in 90 ul) into transparent, black, tissue culture treated 96 well plates (Packard, No. 6005182).
Test data reported herein was generated using two different compounds preparation and dosing methods. In method (1) a 10 mM compound stock solution in 100% (v/v) DMSO was serially diluted in 4-fold steps in 100% (v/v) DMSO using a Thermo Scientific Matrix SerialMate. The diluted compounds were then further diluted 1 in 30 in assay media using a Thermo Scientific Matrix PlateMate and a 10 μl aliquot of this dilution was dosed to cells manually using a multi-channel pipette. In method (2) starting with a 10 mM compound stock solution, the Labcyte Echo 550 was used to generate a compound concentration response set diluted in 30 μl of assay media. The Echo 550 is a liquid handler that uses acoustic technology to perform direct microplate-to-microplate transfers of DMSO compound solutions. The system can be programmed to transfer volumes as low as […] in multiple increments between microplates and in so doing generates a serial dilution of compound which is then back-filled to normalise the DMSO is concentration across the dilution range. A 10 μl volume of diluted compound is then dosed to cells using a Thermo Scientific Matrix PlateMate.
Plates were incubated overnight at 37° C., 5% CO2. Wells were then dosed with compound prepared by one of the 2 methods above and further incubated for 20-22 hours at 37° C., 5% CO2. Plates were fixed by the addition of 20 μl of 10% (v/v) formaldehyde solution (in PBS) to each well (final formaldehyde conc.=1.67% (v/v)) and left at room temperature for 10 mins. This fixative solution was removed and cells were washed with 250 μl of PBS/0.05% (v/v) Tween 20 (PBST) using an automated plate washer. This process was then repeated twice more.
Immunostaining was performed at room temperature. Cells were permeabilised by the addition of 35 μl of PBS containing 0.5% Tween 20 and incubated for 1 hour at room temperature. Permeabilisation solution was removed and cells were washed with 250 μl of PBST using an automated plate washer. This process was then repeated twice more. […]
Take `Cc1cc(OCCN2CCN(C)C(=O)C2)ccc1C1(O)CCN(c2ccc3nnc(C(F)(F)F)n3n2)CC1` [Example 31, 4-[2-(4-{4-hydroxy-1-[3-(trifluoromethyl)[1,2,4]-triazolo[4,3-b]pyridazin-6-yl]piperidin-4-yl}-3-methylphenoxy)ethyl]-1-methylpiperazin-2-one]: the 50% inhibitory concentration (IC50) was 260 nM.

`CN1CCN(CCOc2ccc(C3CCN(c4ccc5nnc(C(F)(F)F)n5n4)CC3)cc2)CCC1=O` [Example 32, 4-methyl-1-[2-(4-{1-[3-(trifluoromethyl)[1,2,4]-triazolo[4,3-b]pyridazin-6-yl]piperidin-4-yl}phenoxy)ethyl]-1,4-diazepan-5-one] yielded an IC50 of 56 nM. This IC50 is about 4.6-fold lower than that of the compound before.

`CC(=O)N1CCN(CCOc2ccc(C3CCN(c4ccc5nnc(C(F)(F)F)n5n4)CC3)cc2)C[C@@H]1C` [Example 33, 6-[4-(4-{2-[(3S)-4-acetyl-3-methylpiperazin-1-yl]ethoxy}phenyl)piperidin-1-yl]-3-(trifluoromethyl)[1,2,4]triazolo[4,3-b]pyridazine]: inhibition was half-maximal at 79 nM (IC50).

`CC(=O)N1CCN(CCOc2ccc(C3CCN(c4ccc5nnc(C(F)(F)F)n5n4)CC3)cc2)C[C@H]1C` [Example 34, 6-[4-(4-{2-[(3R)-4-acetyl-3-methylpiperazin-1-yl]ethoxy}phenyl)piperidin-1-yl]-3-(trifluoromethyl)[1,2,4]triazolo[4,3-b]pyridazine] gave an IC50 of 67 nM.

`CC(=O)N1CCN(CCOc2ccc(C3(O)CCN(c4ccc5nnc(C(F)(F)F)n5n4)CC3)c(F)c2)CC1` [Example 35, 4-{4-[2-(4-acetylpiperazin-1-yl)ethoxy]-2-fluorophenyl}-1-[3-(trifluoromethyl)[1,2,4]-triazolo[4,3-b]pyridazin-6-yl]piperidin-4-ol] gave an IC50 of 140 nM.

The compound `CN1CCN(CCOc2ccc(C3(O)CCN(c4ccc5nnc(C(F)(F)F)n5n4)CC3)c(F)c2)CC1=O` [Example 36, 4-[2-(3-fluoro-4-[4-hydroxy-1-[3-(trifluoromethyl)[1,2,4]triazolo[4,3-b]pyridazin-6-yl]piperidin-4-yl]phenoxy)ethyl]-1-methylpiperazin-2-one] showed an IC50 of 73 nM.

Turning to `CCN1CCN(CCOc2ccc(C3(O)CCN(c4ccc5nnc(C(F)(F)F)n5n4)CC3)cc2)CC1=O` [Example 37, 1-ethyl-4-[2-(4-{4-hydroxy-1-[3-(trifluoromethyl)[1,2,4]triazolo[4,3-b]pyridazin-6-yl]piperidin-4-yl}phenoxy)ethyl]piperazin-2-one], half-maximal inhibition (IC50) was put at 390 nM.

`O=C1CN(CCOc2ccc(C3(O)CCN(c4ccc5nnc(C(F)(F)F)n5n4)CC3)cc2)CCN1C1CC1` [Example 38, 1-cyclopropyl-4-[2-(4-{4-hydroxy-1-[3-(trifluoromethyl)[1,2,4]triazolo[4,3-b]pyridazin-6-yl]piperidin-4-yl}phenoxy)ethyl]piperazin-2-one] returned an IC50 of 490 nM. The IC50 values of the last two compounds are within 1.5-fold of each other.

For the compound `CC(=O)N1CCN(CCOc2ccc(C3(O)CCN(c4ccc5nnc(C(F)(F)F)n5n4)CC3)cc2)C[C@H]1C` [Example 39, 4-(4-{2-[(3R)-4-acetyl-3-methylpiperazin-1-yl]ethoxy}phenyl)-1-[3-(trifluoromethyl) [1,2,4]triazolo[4,3-b]pyridazin-6-yl]piperidin-4-ol], the 50% inhibitory concentration (IC50) turned out to be 71 nM.

In turn, `CC(=O)N1CCN(CCOc2ccc(C3(O)CCN(c4ccc5nnc(C(F)(F)F)n5n4)CC3)cc2)C[C@@H]1C` [Example 40, 4-(4-{2-[(3S)-4-acetyl-3-methylpiperazin-1-yl]ethoxy}phenyl)-1-[3-(trifluoromethyl) [1,2,4]triazolo[4,3-b]pyridazin-6-yl]piperidin-4-ol] had a 50% inhibitory concentration (IC50) of 63 nM.

For `CC(=O)N1CCCN(CCOc2ccc(C3(O)CCN(c4ccc5nnc(C(F)(F)F)n5n4)CC3)c(F)c2)CC1` [Example 41, 4-{4-[2-(4-acetyl-1,4-diazepan-1-yl)ethoxy]-2-fluorophenyl}-1-[3-(trifluoromethyl)[1,2,4]triazolo[4,3-b]pyridazin-6-yl]piperidin-4-ol], the IC50 came out at 36 nM. Against the preceding compound, the IC50 is about 1.8-fold lower.

`CN1CCN(CCCOc2ccc(C3(O)CCN(c4ccc5nnc(C(F)(F)F)n5n4)CC3)c(F)c2)CC1=O` [Example 42, 4-[3-(3-fluoro-4-{4-hydroxy-1-[3-(trifluoromethyl)[1,2,4]triazolo[4,3-b]pyridazin-6-yl]piperidin-4-yl}phenoxy)propyl]-1-methylpiperazin-2-one] showed an IC50 of 170 nM.
